Reference: US5736356A, “Transglutaminase originating from Crassostrea gigas” (Ajinomoto Co., Inc., priority 1994, dated 1998)
Entries after “also recorded” stand apart in the source; their conditions may differ. Where two headings read alike, the source gives them in different places. Residues, ends and D or L forms follow the SMILES beside them. No end group written: not given here. *: point of attachment. Cbz = O=C(OCc1ccccc1)*

Legend:
[1] = molecular target: T1, purified transglutaminase originating from Crassostrea gigas (Magallana gigas, UniProt A0A8W8K4D7); format: biochemical; conditions: final concentration 1 mM; for Residual Activity: treated at 25° C. for 10 minutes, reaction 37° C. 30 minutes
T1 construct: Met-less mature form starts […]; recombinant enzyme from E. coli or yeast reported equivalent
Procedure: The activity of the transglutaminase is determined by reacting the enzyme with dimethylated casein and monodansylcadaverine as substrates and measuring an increase in the fluorescent intensity of casein due to the incorporation of monodansylcadaverine into the dimethylated casein. The composition of the reaction solution is as follows:
To 2.4 ml of the foregoing reaction solution, there is added 20 to 50 μl of the transglutaminase solution followed by carrying out the reaction at 37° C. for 30 min, terminating the reaction by addition of 100 μl of a 500 mM EDTA solution and then determining the fluorescent intensity of the reaction solution (using a device: RF-1500 available from Shimadzu Corporation; excitation wavelength: 350 nm; wavelength of emitted fluorescent rays: 480 nm). In respect of the unit of the activity, that required for increasing the fluorescent intensity by 1.0 within one minute is herein defined to be one unit.
The purified transglutaminase was treated at a temperature of 25° C. for 10 minutes while adding each of a variety of enzyme activity-inhibitory agents and each metal ion in such an amount that the final concentration thereof was equal to 1 mM and then the reaction was carried out at a temperature of 37° C. for 30 minutes using dimethylated casein and monodansylcadaverine as substrates.

[2] = molecular target: T1, purified transglutaminase originating from Crassostrea gigas; format: biochemical; conditions: synthetic substrate and hydroxylamine
Description: The inventors have investigated the enzyme activity of the purified transglutaminase using a variety of synthetic substrates and hydroxylamine.

T1 sequence (A0A8W8K4D7 entry or part of it with the stated changes): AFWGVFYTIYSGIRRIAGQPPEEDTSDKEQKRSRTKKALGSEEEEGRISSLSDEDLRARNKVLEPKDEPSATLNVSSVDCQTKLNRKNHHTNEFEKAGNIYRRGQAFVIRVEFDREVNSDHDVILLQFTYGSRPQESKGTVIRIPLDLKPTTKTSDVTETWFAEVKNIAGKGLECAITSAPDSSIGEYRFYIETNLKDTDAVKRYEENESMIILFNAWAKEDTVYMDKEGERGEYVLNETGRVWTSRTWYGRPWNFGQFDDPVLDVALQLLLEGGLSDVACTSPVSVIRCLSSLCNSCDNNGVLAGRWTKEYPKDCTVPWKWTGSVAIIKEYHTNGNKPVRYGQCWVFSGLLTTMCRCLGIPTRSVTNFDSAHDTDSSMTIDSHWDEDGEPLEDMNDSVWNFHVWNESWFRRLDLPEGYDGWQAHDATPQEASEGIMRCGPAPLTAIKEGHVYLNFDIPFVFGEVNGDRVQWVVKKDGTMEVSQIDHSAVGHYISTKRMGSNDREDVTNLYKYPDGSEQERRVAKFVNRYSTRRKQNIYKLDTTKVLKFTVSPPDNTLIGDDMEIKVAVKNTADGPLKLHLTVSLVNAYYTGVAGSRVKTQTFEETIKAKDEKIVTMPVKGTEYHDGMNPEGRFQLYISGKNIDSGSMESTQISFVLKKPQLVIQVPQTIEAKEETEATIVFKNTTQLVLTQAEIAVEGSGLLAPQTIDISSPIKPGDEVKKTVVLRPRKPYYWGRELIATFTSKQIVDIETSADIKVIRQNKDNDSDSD

Row | Molecule | Residual Activity [1] [%] | enzyme activity-inhibitory effect (in words) [1] | enzyme activity with synthetic substrate (in words) [2] | further results
1 | [Mn+2] [Mn^2+] | 84.7 |  |  | 
2 | [Sr+2] [Sr^2+] | 93.8 | almost no enzyme activity-inhibitory effect |  | 
3 | NC(=O)CC[C@H](NC(=O)OCc1ccccc1)C(=O)NCC(=O)O [CBZ-Gln-Gly, benzyloxycarbonyl glutaminyl glycine] (Cbz-Gln-Gly-OH) |  |  | catalyzed the reaction | enzyme activity with synthetic substrate (in words) ([2]; listed as benzyloxycarbonyl glutaminyl glycine): showed the enzyme activity
4 | glycyl glutamyl glycine [Gly-Gln-Gly] |  |  | did not catalyze the reaction | enzyme activity with synthetic substrate (in words) ([2]; listed as glycyl glutamyl glycine): did not show any enzyme activity
5 | [Co+2] [Co^2+] | 54.3 | strongly inhibited the enzyme activity |  | 
6 | [Ba+2] [Ba^2+] | 102 | almost no enzyme activity-inhibitory effect |  | 
7 | O=S(=O)(F)Cc1ccccc1 [Phenylmethylsulfone Fluoride] | 96.4 | almost no enzyme activity-inhibitory effect |  | 
8 | CBZ-Gln-Gln-Gly: synthetic substrate (Cbz-Gln-Gln-Gly) |  |  | catalyzed the reaction | 
9 | [Ni+2] [Ni^2+] | 67.9 |  |  | 
10 | O=C(O)CI [Monoiodoacetic Acid] |  | high enzyme activity-inhibitory effect |  | enzyme activity-inhibitory effect (in words) ([1]; listed as momoiodo acetic acid): inhibited
11 | [Zn+2] [Zn^2+] | 65.0 |  |  | 
12 | O=C(O)c1cc[c]([Hg][Cl])cc1 [p-Chloromercuribenzoic Acid] | 10.5 | high enzyme activity-inhibitory effect; also recorded: inhibited |  | 
13 | CCOC(=O)CNC(=O)[C@H](CCC(N)=O)NC(=O)OCc1ccccc1 [CBZ-Gln-Gly-OEt] (Cbz-Gln-Gly-OEt) |  |  | catalyzed the reaction | 
14 | CBZ-Gly- Gly-Gln-Gly: synthetic substrate, SEQ ID NO: 143 (Cbz-GGQG) |  |  | catalyzed the reaction | 
15 | NC(=O)C[C@H](NC(=O)OCc1ccccc1)C(=O)NCC(=O)O [CBZ-Asn-Gly, benzyloxycarbonyl asparaginyl glycine] (Cbz-Asn-Gly-OH) |  |  | did not catalyze the reaction | enzyme activity with synthetic substrate (in words) ([2]; listed as benzyloxycarbonyl asparaginyl glycine): did not show any enzyme activity
16 | CCN1C(=O)C=CC1=O [N-Ethylmaleimide] |  | high enzyme activity-inhibitory effect; also recorded: inhibited |  | 
17 | [Mg+2] [Mg^2+] | 98.2 | almost no enzyme activity-inhibitory effect |  | 
18 | NC(=O)CC[C@H](NC(=O)OCc1ccccc1)C(=O)O [CBZ-Gln, benzyloxycarbonyl glutamine] |  |  | did not catalyze the reaction | enzyme activity with synthetic substrate (in words) ([2]; listed as benzyloxycarbonyl glutamine): did not show any enzyme activity
19 | [Cu+2] [Cu^2+] | 8.8 | strongly inhibited the enzyme activity; also recorded: extremely high; also recorded: inhibited |  | 
20 | [Pb+2] [Pb^2+] | 55.5 | strongly inhibited the enzyme activity |  | 
